Source: patent US20100144683A1, “METHODS FOR GENERATING MAMMALIAN MODELS OF ATOPIC DISEASES, AND SCREENING FOR THEIR TREATMENT” (ASSOCIATION POUR LA RECHERCHE A L'IGBMC (ARI), priority 2006, published 2010)

Tests used:
[1] = test system: TSLP; experiment: TSLP RNA level (Q-PCR) in skin and organs after topical application of NR agonists; type: in vivo, mouse; details: for TSLP RNA levels in ears at D18: 0.25 nmole per ear every second day, WT mice; for dose dependence of TSLP transcripts: increasing doses (MC903: 0.4, 1 or 4 nmoles per ear)
[2] = test system: TSLP; experiment: as above; type: in vivo, mouse; details: for increase in TSLP transcripts at D5 / effect on TSLP expression (Q-PCR): 4 nmoles in ethanol topically on whole ears of CD1 WT mice, D1 to D4, Q-PCR on day 5
Experimental: Four nmoles of ligands dissolved in ethanol were topically applied to whole ears of 6-8-week-old female CD1 wildtype (WT) mice for 4 consecutive days (D1 to D4), and TSLP RNA levels were determined on day 5.
1α,25-(OH)2D3, or MC903 and ethanol (vehicle) were applied to WT mouse right and left ears, respectively. Two shaved areas (1 cm^2 each) of dorsal skin were also treated with MC903 or ethanol.

[3] = test system: ears of CD1 wildtype (WT) mice; experiment: AD-like phenotype upon long-term ear topical treatment (appearance, histology, IHC); type: in vivo, mouse
Text: White arrows point to the dermal/epidermal junction. FIGS. 2a and b show the ear appearance at day 17 after ethanol and MC903 treatment, respectively. FIGS. 2c and d show hematoxylin and eosin-stained (HE) ear sections of ethanol- and MC903-treated mice at day 17, respectively. Eosinophil-selective cytoplasmic red staining is pointed by arrows in the inset of (d). FIG. 2 u show hematoxylin and eosin-stained (HE) ear sections of ethanol- and 1α,25(OH)2D3 treated mice every second day, at a dose of 0.25 nmole, at day 18 (D18). FIGS. 2 e to n show the result of IHC performed on ear sections from ethanol- or MC903-treated mice at D17, with antibodies against GR1 (e and f), CD3 (g and h), CD4 (i and j), CD8 (k and l) and CD11c (m and n). Yellow color corresponds to staining of antibodies, whereas blue corresponds to DAPI staining of nuclei. FIGS. 2 o and p show the Toluidin blue (TB)-staining of ear sections. Red arrows point to one of the mast cells with intense blue color in the dermis.

[4] = Calcemia and overall health upon topical application; type: in vivo; details: 4 nmoles topically on ears, 4 consecutive days
Experimental: 1α,25-(OH)2D3, or MC903 and ethanol (vehicle) were applied to WT mouse right and left ears, respectively. Two shaved areas (1 cm^2 each) of dorsal skin were also treated with MC903 or ethanol. […]

[5] = test system: MC903-induced TSLP expression; experiment: RAR antagonist on MC903-induced TSLP RNA in ears; type: in vivo, mouse; details: BMS493 2.5 nmoles with MC903 1.25 nmoles, daily on ears of CD1 WT mice, D3
Experimental: The RAR antagonist BMS493 (2.5 nmoles) with ethanol and with or without MC903 (1.25 nmoles) was daily topically-applied to ears of 6-8-week-old female CD1 (WT) mice. TSLP RNA levels in the ears were measured at D3.

[6] = test system: ears of CD1 wildtype (WT) mice; experiment: AD-like phenotype upon long-term ear topical treatment (appearance, histology, IHC); type: in vivo, mouse; details: topical treatment with the RAR agonist alone

Q: What does the source list for `C=C1/C(=C\C=C2/CCC[C@]3(C)[C@@H]([C@H](C)CCCC(C)(C)O)CC[C@@H]23)C[C@@H](O)C[C@@H]1O` [1α,25-(OH)2D3, 1,25-Dihydroxyvitamin D3]?
A: TSLP RNA levels in ears at D18 [1]: significantly induced; TSLP RNA levels in ears at D18 ([1]; listed as 1α,25(OH)2D3): increased; increase in TSLP transcripts at D5 [2]: > 300 fold; ear appearance ([3]; MC903 4 nmoles daily or 1α,25(OH)2D3 0.25 nmole every second day, from D5, D17): reddening and swelling, that worsened with time; ear histology (hematoxylin/eosin) ([3]; MC903 4 nmoles daily, D17, 1α,25-(OH)2D3 0.25 nmole every other day, D18): inflammatory infiltrate comprising CD4+ T lymphocytes, dendritic cells, eosinophils and mast cells; hypercalcemia and survival [4]: hypercalcemia and death of the mice

Q: For `C[C@H](CCCC(C)(C)O)[C@H]1CC[C@H]2[C@@H]3CC=C4C[C@@H](O)CC[C@]4(C)[C@H]3CC[C@]12C` [25-hydroxycholesterol], which “effect on TSLP expression (Q-PCR)” value [2] is on record?
A: The value was “no effect”.

Q: With `CC1(C)CC=C(C#Cc2ccccc2)c2cc(/C=C/c3ccc(C(=O)O)cc3)ccc21` [BMS493, (E)-4-[2-[5,6-Dihydro-5,5-dimethyl-8-(2-phenylethynyl)naphthalene-2-yl]ethen-1-yl]benzoic Acid] as the compound, how does the “effect on MC903-induced TSLP expression” value [5] read?
A: The value was “down-regulates”.

Q: Which “effect on TSLP expression (Q-PCR)” value [2] does the source give for `CC1(C)CCC(C)(C)c2cc(C3(c4ccc(C(=O)O)cc4)OCCO3)ccc21` [BMS649] here?
A: Its value is “no effect”.

Q: With `CC1(C)CCC(C)(C)c2cc(C(O)C(=O)Nc3ccc(C(=O)O)cc3F)ccc21` (centres unmarked) [BMS961, R- and S-3-fluoro-4-[2-hydroxy-2-(5,5,8,8-tetramethyl-5,6,7,8,-tetrahydro-naphthalen-2-yl)-acetulamino]-benzoic acid] as the compound, how does the “AD-like phenotype upon topical treatment on its own” value [6] read?
A: Its value is “too low to trigger an overt AD-like phenotype”.

Q: And the “increase in TSLP transcripts at D5” value [2]?
A: Its value is 5 fold.

Q: What about the “TSLP transcripts upon application on mouse ear skin” value ([2]; topical application on mouse ear skin) of the same compound?
A: Its value is “significant increase”.

Q: With `C=C1/C(=C\C=C2/CCC[C@]3(C)[C@@H]([C@H](C)/C=C/C=C/C(O)(CC)CC)CC[C@@H]23)C[C@@H](O)C[C@@H]1O` [EB1089, 1(S),3(R)-dihydroxy-20(R)-(5′-ethyl-5′-hydroxy-hepta-1′(E),3′(E)-dien-1′-yl)-9,10-secopregna-5(Z),7(E),10(19)-triene] as the compound, how does the “dose dependence of TSLP transcripts” value [1] read?
A: The value was “similarly observed”.

Q: For `CC(C)OC(=O)C(C)(C)Oc1ccc(C(=O)c2ccc(Cl)cc2)cc1` [Fenofibrate], which “effect on TSLP expression (Q-PCR)” value [2] is on record?
A: The value was “no effect”.

Q: For `Cc1cc(SCc2sc(-c3ccc(C(F)(F)F)cc3)nc2C)ccc1OCC(=O)O` [GW501516], which “effect on TSLP expression (Q-PCR)” value [2] is on record?
A: The value was “no effect”.

Q: Which “dose dependence of TSLP transcripts” value [1] does the source give for `C=C1/C(=C\C=C2/CCC[C@]3(C)[C@@H]([C@@H](C)OCCCC(O)(CC)CC)CC[C@@H]23)C[C@@H](O)C[C@@H]1O` [KH1060, 1α,25-(OH),-20-epi-22-oxa-24,26,27-trishomovitamin D] here?
A: Its value is “similarly observed”.

Q: With `CN(CCOc1ccc(CC2SC(=O)NC2=O)cc1)c1ccccn1` (centres unmarked) [Rosiglitazone] as the compound, how does the “effect on TSLP expression (Q-PCR)” value [2] read?
A: Its value is “no effect”.
